The results in this text go back to patent US20240400555A1 (Initial Therapeutics, Inc., priority 2023, published 2024).

For one test, the system named is MV-4-11 cells. The test is described as follows: Cell Viability Assay in MV-4-11 Cells. It is filed as cell-based. The following applies: Homo sapiens, MV4-11, 72 h. Summed up: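 Luminescent ATP read-out (CellTiter-Glo) after 72 h compound treatment of MV-4-11 leukaemia cells (7,000 per well, IMDM plus 10% FBS). Values expressed relative to DMSO control and derived by four-parameter non-linear regression.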
In turn, `Cc1cccc2ccnc(N(C(=O)c3ccc(C#CC(C)(C)O)cc3F)[C@@H]3CCCNC3)c12` [Example 592, (R)-2-fluoro-4-(3-hydroxy-3-methylbut-1-yn-1-yl)-N-(8-methylisoquinolin-1-yl)-N-(piperidin-3-yl)benzamide] returned an IC50 of 0.36 µM.

The test is the same for the next values; noted with them: Homo sapiens, MV4-11, 72 h, MV-4-11 cells, 72 h, Cell-Titer Glo; read-out: IC50.
For `Cc1cccc2ccnc(N(C(=O)c3ccc(Nc4nccc(Nc5ccncc5)n4)cc3F)[C@@H]3CCCNC3)c12` [Example 683, (R)-2-fluoro-N-(8-methylisoquinolin-1-yl)-N-(piperidin-3-yl)-4-((4-(pyridin-4-ylamino)pyrimidin-2-yl)amino)benzamide], the IC50 is 0.21 µM.

In the case of `Cc1nnc(-c2ccc(C(=O)N(c3nccc4cccc(C)c34)[C@@H]3CCCNC3)nc2)s1` [Example 783, (R)-5-(5-methyl-1,3,4-thiadiazol-2-yl)-N-(8-methylisoquinolin-1-yl)-N-(piperidin-3-yl)picolinamide], the IC50 came out at 0.18 µM.

As to `Cc1cccc2ccnc(N(C(=O)c3ccc(-c4nnc5n4CCCC5)cc3F)[C@@H]3CCCNC3)c12` [Example 432, (R)-2-fluoro-N-(8-methylisoquinolin-1-yl)-N-(piperidin-3-yl)-4-(5,6,7,8-tetrahydro-[1,2,4]triazolo[4,3-a]pyridin-3-yl)benzamide], the concentration for half-maximal inhibition (IC50) stood at 0.4 µM.

For the compound `Cc1cccc2ccnc(N(C(=O)c3ccc(Nc4nccc(-c5ccc(O)cc5)n4)cc3F)[C@@H]3CCCNC3)c12` [Example 721, (R)-2-fluoro-4-((4-(4-hydroxyphenyl)pyrimidin-2-yl)amino)-N-(8-methylisoquinolin-1-yl)-N-(piperidin-3-yl)benzamide], the IC50 came to 0.14 µM.

As to `Cn1cc(-c2ccc(C(=O)N(c3nccc4sc(-c5ccc6cc[nH]c6c5)cc34)[C@@H]3CCCNC3)c(F)c2)nn1` [Example 543, 2-fluoro-N-[2-(1H-indol-6-yl)thieno [3,2-c]pyridin-4-yl]-4-(1-methyltriazol-4-yl)-N-[(3R)-3-piperidyl] benzamide], the IC50 turned out to be 0.31 µM.

Regarding `Cn1cc(-c2ccc(C(=O)N(c3nccc4sc(-c5ccc6c(c5)CNC6=O)cc34)[C@@H]3CCCNC3)c(F)c2)nn1` [Example 538, 2-fluoro-4-(1-methyltriazol-4-yl)-N-[2-(1-oxoisoindolin-5-yl)thieno[3,2-c]pyridin-4-yl]-N-[(3R)-3-piperidyl]benzamide], the IC50 turned out to be 0.92 µM.

`Cc1cc(-c2cc3c(N(C(=O)c4ccc(-c5cn(C)nn5)cc4F)[C@@H]4CCCNC4)nccc3s2)ccc1C(N)=O` [Example 607, (R)—N-(2-(4-carbamoyl-3-methylphenyl)thieno[3,2-c]pyridin-4-yl)-2-fluoro-4-(1-methyl-1H-1,2,3-triazol-4-yl)-N-(piperidin-3-yl)benzamide]: the IC50 was found to be 0.8 µM.

On to `Cc1cc(F)cc2ccnc(N(C(=O)c3ccc(-c4nnn(C)c4C)cc3F)[C@@H]3CCCNC3)c12` [Example 829, (R)-4-(1,5-dimethyl-1H-1,2,3-triazol-4-yl)-2-fluoro-N-(6-fluoro-8-methylisoquinolin-1-yl)-N-(piperidin-3-yl)benzamide], for which the concentration for half-maximal inhibition (IC50) was 0.13 µM.

For `Cc1csc2ccnc(N(C(=O)c3ccc(-c4cn(C)nn4)cn3)[C@@H]3CCCNC3)c12` [Example 811, (R)-5-(1-methyl-1H-1,2,3-triazol-4-yl)-N-(3-methylthieno[3,2-c]pyridin-4-yl)-N-(piperidin-3-yl)picolinamide], the concentration for half-maximal inhibition (IC50) is 0.12 µM.

Take `O=C(c1ccc(Nc2ncccn2)cc1F)N(c1nccc2cc(Nc3ncccn3)ccc12)[C@@H]1CCCNC1` [Example 738, (R)-2-fluoro-N-(piperidin-3-yl)-4-(pyrimidin-2-ylamino)-N-(6-(pyrimidin-2-ylamino)isoquinolin-1-yl)benzamide]: the IC50 came to 3.7 µM.

As to `Cc1cc(-c2cc3c(N(C(=O)c4ccc(-c5cn(C)nn5)cc4F)[C@@H]4CCCNC4)nccc3s2)cc(C)c1C(N)=O` [Example 611, (R)—N-(2-(4-carbamoyl-3,5-dimethylphenyl)thieno[3,2-c]pyridin-4-yl)-2-fluoro-4-(1-methyl-1H-1,2,3-triazol-4-yl)-N-(piperidin-3-yl)benzamide], the IC50 was 2.3 µM.

For the compound `Cc1cccc2ccnc(N(C(=O)c3ccc(Nc4nccc(CO)n4)cc3F)[C@@H]3CCCNC3)c12` [Example 321, (R)-2-fluoro-4-((4-(hydroxymethyl)pyrimidin-2-yl)amino)-N-(8-methylisoquinolin-1-yl)-N-(piperidin-3-yl)benzamide], the IC50 is 0.78 µM.

Consider `CCc1nnc(-c2ccc(C(=O)N(c3nccc4cccc(C)c34)[C@@H]3CCCNC3)nc2)s1` [Example 673, 5-(5-ethyl-1,3,4-thiadiazol-2-yl)-N-(8-methyl-1-isoquinolyl)-N-[(3R)-3-piperidyl]pyridine-2-carboxamide], for which the IC50 came to 0.24 µM.

On to `NC(=O)/C=C/c1cc2c(N(C(=O)c3ccc(-n4nnc5cccnc54)cc3F)[C@@H]3CCCNC3)nccc2s1` [Example 442, N-[2-[(E)-3-amino-3-oxo-prop-1-enyl]thieno[3,2-c]pyridin-4-yl]-2-fluoro-N-[(3R)-3-piperidyl]-4-(triazolo[4,5-b]pyridin-3-yl)benzamide], for which the IC50 came to 1 µM.

For the compound `Cc1cccc2ccnc(N(C(=O)c3ccc(C#N)cc3-c3ccccn3)[C@@H]3CCCNC3)c12` [Example 335, 4-cyano-N-(8-methyl-1-isoquinolyl)-N-[(3R)-3-piperidyl]-2-(2-pyridyl)benzamide], the IC50 was 2.6 µM.

Turning to `Cc1cccc2ccnc(N(C(=O)c3ccc(-n4nnc5cccnc54)cc3C(F)(F)F)[C@@H]3CCCNC3)c12` [Example 312, (R)-4-(3H-[1,2,3]triazolo[4,5-b]pyridin-3-yl)-N-(8-methylisoquinolin-1-yl)-N-(piperidin-3-yl)-2-(trifluoromethyl)benzamide], the IC50 is 2.6 µM.

For `Cc1cccc2ccnc(N(C(=O)c3ccc(Nc4nccc(N5CC[C@@H](O)C5)n4)cc3F)[C@@H]3CCCNC3)c12` [Example 684, 2-fluoro-4-((4-((R)-3-hydroxypyrrolidin-1-yl)pyrimidin-2-yl)amino)-N-(8-methylisoquinolin-1-yl)-N—((R)-piperidin-3-yl)benzamide], the IC50 amounted to 0.059 µM.

For the compound `CC(O)c1ccc(-c2cc3c(N(C(=O)c4ccc(-n5nnc6cccnc65)cc4F)[C@@H]4CCCNC4)nccc3s2)cc1` (stereo partly drawn) [Example 600, 4-(3H-[1,2,3]triazolo[4,5-b]pyridin-3-yl)-2-fluoro-N-(2-(4-(1-hydroxyethyl)phenyl)thieno[3,2-c]pyridin-4-yl)-N—((R)-piperidin-3-yl)benzamide], the IC50 was 0.27 µM.

On to `Cn1cc(-c2ccc(C(=O)N(c3nccc4cc(F)ccc34)[C@@H]3CCCNC3)cc2)nn1` [Example 805, (R)—N-(6-fluoroisoquinolin-1-yl)-4-(1-methyl-1H-1,2,3-triazol-4-yl)-N-(piperidin-3-yl)benzamide], for which the IC50 came out at 0.82 µM.

On to `Cc1cccc2ccnc(N(C(=O)c3ccc(Nc4nccc(N5CCC(N6CCCC6)CC5)n4)cc3F)[C@@H]3CCCNC3)c12` [Example 715, (R)-2-fluoro-N-(8-methylisoquinolin-1-yl)-N-(piperidin-3-yl)-4-((4-(4-(pyrrolidin-1-yl)piperidin-1-yl)pyrimidin-2-yl)amino)benzamide], for which the IC50 is 0.23 µM.

For `Cc1cc(-c2ccc(C(=O)N(c3nccc4cccc(C)c34)[C@@H]3CCCNC3)c(F)c2)on1` [Example 316, (R)-2-fluoro-N-(8-methylisoquinolin-1-yl)-4-(3-methylisoxazol-5-yl)-N-(piperidin-3-yl) benzamide], the IC50 turned out to be 0.082 µM.

For the compound `O=C(c1ccc(-n2nnc3cccnc32)cc1F)N(c1nccc2sc(-c3ccccc3)cc12)[C@@H]1CCCNC1` [Example 464, 2-fluoro-N-(2-phenylthieno[3,2-c]pyridin-4-yl)-N-[(3R)-3-piperidyl]-4-(triazolo[4,5-b]pyridin-3-yl)benzamide], the half-inhibitory concentration (IC50) is 0.64 µM.

For the compound `CC(C)(Oc1cccc(-c2cc3c(N(C(=O)c4ccc(-n5nnc6cccnc65)cc4F)[C@@H]4CCCNC4)nccc3s2)c1)C(N)=O` [Example 594], the IC50 stood at 0.19 µM.

For the compound `COc1cc(C)c2c(N(C(=O)c3ccc(-c4nnc(C)s4)nc3)[C@@H]3CCCNC3)nccc2c1` [Example 901, N-(6-methoxy-8-methyl-1-isoquinolyl)-6-(5-methyl-1,3,4-thiadiazol-2-yl)-N-[(3R)-3-piperidyl]pyridine-3-carboxamide], the IC50 came out at 0.048 µM.

For `COCCCc1ccnc(Nc2ccc(C(=O)N(c3nccc4cccc(C)c34)[C@@H]3CCCNC3)c(F)c2)n1` [Example 752, (R)-2-fluoro-4-((4-(3-methoxypropyl)pyrimidin-2-yl)amino)-N-(8-methylisoquinolin-1-yl)-N-(piperidin-3-yl)benzamide], the IC50 was 0.19 µM.

As for `O=C(c1ccc(-n2nnc3cccnc32)cc1F)N(c1nccc2cc(-c3cccs3)ccc12)[C@@H]1CCCNC1` [Example 368, (R)-4-(3H-[1,2,3]triazolo[4,5-b]pyridin-3-yl)-2-fluoro-N-(piperidin-3-yl)-N-(6-(thiophen-2-yl)isoquinolin-1-yl)benzamide], the IC50 worked out at 0.5 µM.

Take `Cc1cccc2ccnc(N(C(=O)c3ccc(Nc4nccc(NCc5cnn(C)c5)n4)cc3F)[C@@H]3CCCNC3)c12` [Example 694, (R)-2-fluoro-4-((4-(((1-methyl-1H-pyrazol-4-yl)methyl)amino)pyrimidin-2-yl)amino)-N-(8-methylisoquinolin-1-yl)-N-(piperidin-3-yl)benzamide]: the IC50 is 0.046 µM.

`Cc1cc(C)c2c(N(C(=O)c3ccc(-c4nc(C)no4)nc3)[C@@H]3CCCNC3)nccc2c1` [Example 916, N-(6,8-dimethyl-1-isoquinolyl)-6-(3-methyl-1,2,4-oxadiazol-5-yl)-N-[(3R)-3-piperidyl]pyridine-3-carboxamide]: the 50% inhibitory concentration (IC50) is 0.57 µM.

On to `Cc1nc(Nc2ccc(C(=O)N(c3nccc4cccc(C)c34)[C@@H]3CCCNC3)c(F)c2)ncc1F` [Example 754, (R)-2-fluoro-4-((5-fluoro-4-methylpyrimidin-2-yl)amino)-N-(8-methylisoquinolin-1-yl)-N-(piperidin-3-yl)benzamide], for which the half-inhibitory concentration (IC50) came to 0.34 µM.

The IC50 is the midpoint of a concentration-inhibition curve.
